One block for each molecule: values may come before it.
Assays:
[1] = target: T1, renal neutral endopeptidase (NEP) (Mus musculus, UniProt Q61391); assay: Inhibition in vivo of renal NEP, competition with [3H]HACBOGIy; details: mice, p.o. single dose 2.6 × 10^-6 mol/kg (1.5 mg/kg)
T1 construct: from tissue; host or cells: mouse kidney (in vivo, homogenised after sacrifice)
T1 sequence (Q61391 1-750): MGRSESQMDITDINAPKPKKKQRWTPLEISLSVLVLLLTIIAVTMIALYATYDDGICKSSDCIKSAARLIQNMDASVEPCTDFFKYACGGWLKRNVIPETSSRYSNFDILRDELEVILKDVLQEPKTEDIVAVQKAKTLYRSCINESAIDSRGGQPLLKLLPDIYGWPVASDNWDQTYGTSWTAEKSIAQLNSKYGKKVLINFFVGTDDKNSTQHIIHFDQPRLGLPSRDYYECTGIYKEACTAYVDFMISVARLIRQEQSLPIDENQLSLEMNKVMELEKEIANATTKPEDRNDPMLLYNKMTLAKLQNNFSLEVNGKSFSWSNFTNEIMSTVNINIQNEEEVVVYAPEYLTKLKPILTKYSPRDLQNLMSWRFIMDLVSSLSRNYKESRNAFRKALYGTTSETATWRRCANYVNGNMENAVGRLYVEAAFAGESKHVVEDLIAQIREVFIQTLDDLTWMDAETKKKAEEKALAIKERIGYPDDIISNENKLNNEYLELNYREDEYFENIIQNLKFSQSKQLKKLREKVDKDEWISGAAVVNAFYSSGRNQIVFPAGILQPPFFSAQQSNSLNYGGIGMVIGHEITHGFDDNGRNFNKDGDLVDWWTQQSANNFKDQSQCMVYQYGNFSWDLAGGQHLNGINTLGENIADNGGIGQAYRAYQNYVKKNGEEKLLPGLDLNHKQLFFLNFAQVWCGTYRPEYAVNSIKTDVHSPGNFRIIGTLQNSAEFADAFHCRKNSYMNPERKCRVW
Description: (§1) The compounds are administrated per os to mice in a single dose. Inhibition of both enzymes is measured during a time period from 1 hour to 16 hours by competitive experiments with specific radiolabelled markers for each enzyme. After i.v. administration of a radiolabelled ACE inhibitor ([^3 H]trandolaprilate) or a radiolabelled NEP inhibitor ([^3 H]HACBOGIy), the animal is sacrificed and the lungs or the kidneys are removed. The organs are homogenized and the radioactivity associated to these homogenates is measured by liquid scintillation as described in the protocol by M. C. Fourni6-Zaluski et al. (J. Med. Chem., 37, (1994), 1070-1083).

[2] = test system: spontaneously hypertensive male rat (SHR); assay: Anti-hypertensive effect in the spontaneously hypertensive rat (SHR); type: in vivo
Description: The anti-hypertensive effect of the compounds of the invention is determined in vivo in the rat affected by a hypertension induced by the administration of DOCA salt (deoxycorticosterone acetate) and in the spontaneously hypertensive male rat (SHR), in accordance with the protocol described by Trapani et al. (J. Cardiovasc. Pharmacol., 14, (1989), 419-424). In that test the compounds of the invention are shown to be powerful anti-hypertensives and to be non-toxic.

[3] = target: T2, pulmonary peptidyldipeptidase A (ACE) (Mus musculus, UniProt P09470); assay: Inhibition in vivo of pulmonary ACE, competition with [3H]trandolaprilate; details: mice, p.o. single dose 2.6 × 10^-6 mol/kg (1.5 mg/kg)
T2 construct: from tissue; host or cells: mouse lung (in vivo, homogenised after sacrifice)
T2 sequence (P09470 35-1312): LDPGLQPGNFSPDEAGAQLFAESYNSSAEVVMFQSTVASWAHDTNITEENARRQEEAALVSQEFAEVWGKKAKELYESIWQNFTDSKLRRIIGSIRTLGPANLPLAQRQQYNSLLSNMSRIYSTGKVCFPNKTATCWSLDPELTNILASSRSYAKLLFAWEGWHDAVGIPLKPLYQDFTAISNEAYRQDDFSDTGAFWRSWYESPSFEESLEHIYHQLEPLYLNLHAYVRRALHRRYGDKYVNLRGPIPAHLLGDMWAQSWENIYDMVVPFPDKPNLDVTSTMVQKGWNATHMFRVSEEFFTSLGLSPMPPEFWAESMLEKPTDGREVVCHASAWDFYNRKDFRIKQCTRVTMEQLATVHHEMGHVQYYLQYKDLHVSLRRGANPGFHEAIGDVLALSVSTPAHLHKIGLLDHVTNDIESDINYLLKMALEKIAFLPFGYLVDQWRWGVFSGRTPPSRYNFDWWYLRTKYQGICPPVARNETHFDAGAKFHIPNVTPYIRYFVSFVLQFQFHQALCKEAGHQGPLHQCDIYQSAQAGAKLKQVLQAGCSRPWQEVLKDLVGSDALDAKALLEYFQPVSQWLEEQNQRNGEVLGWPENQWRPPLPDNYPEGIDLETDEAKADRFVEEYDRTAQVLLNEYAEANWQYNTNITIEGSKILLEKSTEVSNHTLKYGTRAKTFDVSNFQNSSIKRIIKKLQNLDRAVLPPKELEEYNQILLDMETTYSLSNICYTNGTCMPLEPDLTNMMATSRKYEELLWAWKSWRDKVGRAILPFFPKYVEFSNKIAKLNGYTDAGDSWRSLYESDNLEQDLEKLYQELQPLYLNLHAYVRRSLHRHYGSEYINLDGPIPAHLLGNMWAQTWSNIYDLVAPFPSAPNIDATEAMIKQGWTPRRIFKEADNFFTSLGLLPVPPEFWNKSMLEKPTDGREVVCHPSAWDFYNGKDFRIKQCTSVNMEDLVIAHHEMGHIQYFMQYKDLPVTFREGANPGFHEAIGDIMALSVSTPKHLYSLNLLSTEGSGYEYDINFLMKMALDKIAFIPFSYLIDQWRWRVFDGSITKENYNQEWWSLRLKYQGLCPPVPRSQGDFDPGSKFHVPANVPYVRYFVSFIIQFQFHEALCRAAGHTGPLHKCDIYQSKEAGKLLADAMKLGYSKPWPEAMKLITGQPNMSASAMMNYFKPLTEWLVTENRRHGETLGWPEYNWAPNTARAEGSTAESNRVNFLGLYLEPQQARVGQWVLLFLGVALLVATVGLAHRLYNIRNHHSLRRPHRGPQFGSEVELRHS
Description: as §1

[4] = target: neutral endopeptidase (NEP) (Homo sapiens, UniProt P08473); assay: Inhibitory effect in vitro on neutral endopeptidase, [3H]-D-Ala2-Leu-encephalin as substrate; type: biochemical; details: comment on Table I
neutral endopeptidase (NEP), sequence (P08473 whole entry, species assumed): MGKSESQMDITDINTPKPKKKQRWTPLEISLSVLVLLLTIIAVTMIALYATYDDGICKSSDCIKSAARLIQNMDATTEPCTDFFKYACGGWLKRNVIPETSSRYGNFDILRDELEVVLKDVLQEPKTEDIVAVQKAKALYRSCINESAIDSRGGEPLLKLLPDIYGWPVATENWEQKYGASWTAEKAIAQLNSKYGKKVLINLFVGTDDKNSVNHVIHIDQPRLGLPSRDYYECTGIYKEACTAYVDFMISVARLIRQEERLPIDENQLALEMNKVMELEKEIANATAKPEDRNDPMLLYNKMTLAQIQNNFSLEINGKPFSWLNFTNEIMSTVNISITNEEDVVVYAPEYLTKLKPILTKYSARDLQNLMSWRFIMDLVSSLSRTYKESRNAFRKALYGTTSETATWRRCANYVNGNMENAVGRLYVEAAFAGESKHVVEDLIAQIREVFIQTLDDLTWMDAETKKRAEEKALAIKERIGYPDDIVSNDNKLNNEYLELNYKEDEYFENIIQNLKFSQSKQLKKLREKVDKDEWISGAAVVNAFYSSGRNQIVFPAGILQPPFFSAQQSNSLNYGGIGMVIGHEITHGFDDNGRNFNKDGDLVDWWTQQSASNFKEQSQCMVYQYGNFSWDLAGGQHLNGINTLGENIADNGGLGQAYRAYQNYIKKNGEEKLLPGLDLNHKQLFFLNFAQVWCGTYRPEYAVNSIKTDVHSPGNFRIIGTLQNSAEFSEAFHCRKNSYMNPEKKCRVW

[5] = cited from earlier work
[6] = target: neutral endopeptidase called "encephalinase" (Homo sapiens, UniProt P08473); details: Nature, 228, (1980), 286-288; cited from earlier work
neutral endopeptidase called "encephalinase", sequence (P08473 whole entry): as the sequence (P08473 whole entry, species assumed) above

% inhibition renal NEP ([1]; 1 h after administration): 75 ± 3%
% inhibition renal NEP ([1]; 2 h after administration): 70 ± 5%
% inhibition renal NEP ([1]; 4 h after administration): 74 ± 4%
% inhibition renal NEP ([1]; 8 h after administration): 60 ± 10%
% inhibition renal NEP ([1]; 16 h after administration): 48 ± 4%
% inhibition pulmonary ACE ([3]; 1 h after administration): 90 ± 1%
% inhibition pulmonary ACE ([3]; 2 h after administration): 86 ± 3%
% inhibition pulmonary ACE ([3]; 4 h after administration): 87 ± 3%
% inhibition pulmonary ACE ([3]; 8 h after administration): 73 ± 3%
% inhibition pulmonary ACE ([3]; 16 h after administration): 20 ± 8%
SMILES: O=C(NCC(=O)N1[C@@H](c2cccc(O)c2)CC[C@H]1C(=O)O)[C@@H](S)Cc1ccc(O)cc1 [Example 47, N-[N-(5R)-[(2S)-2-mercapto-3-(para-hydroxyphenyl)propanoyl]glycyl]5-(meta-hydroxyphenyl)-L-proline]
Systolic blood pressure (mm Hg) Treated animals ([2]; p.o. 25 mg/kg/day Day 1 to Day 6, n = 10, Day 0): 210 ± 5 mm Hg
Systolic blood pressure (mm Hg) Treated animals ([2]; p.o. 25 mg/kg/day Day 1 to Day 6, n = 10, Day 1): 212 ± 3 mm Hg
Systolic blood pressure (mm Hg) Treated animals ([2]; p.o. 25 mg/kg/day Day 1 to Day 6, n = 10, Day 2): 211 ± 1 mm Hg
Systolic blood pressure (mm Hg) Treated animals ([2]; p.o. 25 mg/kg/day Day 1 to Day 6, n = 10, Day 3): 210 ± 2 mm Hg
Systolic blood pressure (mm Hg) Treated animals ([2]; p.o. 25 mg/kg/day Day 1 to Day 6, n = 10, Day 4): 205 ± 2 mm Hg
Systolic blood pressure (mm Hg) Treated animals ([2]; p.o. 25 mg/kg/day Day 1 to Day 6, n = 10, Day 5): 205 ± 1 mm Hg
Systolic blood pressure (mm Hg) Treated animals ([2]; p.o. 25 mg/kg/day Day 1 to Day 6, n = 10, Day 6): 213 ± 2 mm Hg
Systolic blood pressure (mm Hg) Treated animals ([2]; p.o. 25 mg/kg/day Day 1 to Day 6, n = 10, Day 7): 209 ± 4 mm Hg
Systolic blood pressure (mm Hg) Treated animals ([2]; p.o. 25 mg/kg/day Day 1 to Day 6, n = 10, Day 8): 212 ± 2 mm Hg
Systolic blood pressure (mm Hg) Treated animals ([2]; p.o. 25 mg/kg/day Day 1 to Day 6, n = 10, Day 9): 208 ± 2 mm Hg
Systolic blood pressure (mm Hg) Treated animals ([2]; p.o. 25 mg/kg/day Day 1 to Day 6, n = 10, Day 10): 214 ± 1 mm Hg

SMILES: O=C(O)CNC(=O)C(CS)Cc1ccccc1 (stereo not drawn) [thiorphan, N-(2-mercaptomethyl-3-phenyl-1-oxopropyl)glycine]
activity on NEP versus ACE in words [4]: exhibits an activity on neutral endopeptidase (NEP) only
effect in clinical trials [5]: causes natriuresis and diuresis without any significant hypotensive effect and without decreasing cardiac overload
inhibitory property, concentration [6]: nanomolar concentration

From patent publication US5741781A, “Mercaptoalkanoyldipeptide compounds” (Adir et Compagnie, priority 1995, dated 1998)
